Laboratory results published in ChEMBL document CHEMBL3886313, “Ketone linked benzothiazole inhibitors of endothelial lipase” (2015).

Target: T1, Endothelial lipase (Homo sapiens, UniProt Q9Y5X9)
T1 sequence (Q9Y5X9 whole entry): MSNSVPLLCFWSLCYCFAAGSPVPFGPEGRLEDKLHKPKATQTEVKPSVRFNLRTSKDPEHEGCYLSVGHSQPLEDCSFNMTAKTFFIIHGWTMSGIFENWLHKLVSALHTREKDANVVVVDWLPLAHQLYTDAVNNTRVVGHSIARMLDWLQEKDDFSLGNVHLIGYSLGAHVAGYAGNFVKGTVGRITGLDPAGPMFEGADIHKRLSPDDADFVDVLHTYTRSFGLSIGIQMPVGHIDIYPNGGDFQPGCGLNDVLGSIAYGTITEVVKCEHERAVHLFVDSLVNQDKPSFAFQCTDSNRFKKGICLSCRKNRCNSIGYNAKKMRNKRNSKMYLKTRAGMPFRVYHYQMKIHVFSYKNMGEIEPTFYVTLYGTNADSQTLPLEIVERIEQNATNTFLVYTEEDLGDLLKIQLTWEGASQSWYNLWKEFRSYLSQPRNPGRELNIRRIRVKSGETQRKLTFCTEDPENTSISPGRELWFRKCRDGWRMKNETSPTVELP
Experiment: Enzymatic Assay: The enzymatic assay was measured using white, opaque 96-well half area plates. Each well contained 60 μL of assay buffer (50 mM HEPES pH 8.0, 50 mM NaCl and 1 mM CaCl2) and 2 ul of a DMSO solution containing compound of interest. Conditioned media obtained from HT-1080 cells, which were transformed by RAGE technology (Athersys) to overexpress endogenous EL, was added and the reaction was allowed to incubate for 20 min at 37° C. with gentle agitation. The reaction was started by the addition of 20 μL of a 1:4 dilution of vesicles. The final total reaction volume was 100 μL. The reaction rates were measured on a Gemini plate reader with an excitation wavelength of 488 nm and an emission of 530 nm. Readings were taken every 20 seconds for 10 min with agitation between each reading.
Format: cell-based

Compound | IC50 [nM]
COc1nc(-c2nnc(C(=O)c3nc4ccc(-c5ccc(F)cc5)cc4s3)o2)c(OCc2ccccc2)c(=O)[nH]1 | 122
CC(C)(C)CN1CC(c2nnc(C(=O)c3nc4ccc(-c5ccc(F)cc5)cc4s3)o2)C1 | 4.8
C[C@H](NC(=O)OC(C)(C)C)c1nnc(C(=O)c2nc3ccc(-c4ccccc4)cc3s2)o1 | 66
CC(C)(C)CN1CC(c2nnc(C(=O)c3nc4c(F)cc(-c5ccccc5)cc4s3)o2)C1 | 18
COc1nc(-c2nnc(C(=O)c3nc4ccc(-c5ccccc5)cc4s3)o2)c(OCc2ccccc2)c(=O)[nH]1 | 76

The remaining lines, values ahead:

IC50 [nM] | Compound
< 10 | O=C1NC(=O)C(Cc2nnc(C(=O)c3nc4ccc(-c5ccccc5)cc4s3)o2)S1 (stereo not given)
< 10 | CC1(Cc2nnc(C(=O)c3nc4ccc(-c5ccccc5)cc4s3)o2)NC(=O)N(CC(F)(F)F)C1=O (stereo not given)
< 10 | NS(=O)(=O)Cc1nnc(C(=O)c2nc3ccc(-c4ccccc4)cc3s2)o1
< 10 | O=C1NC(=O)C(Cc2nnc(C(=O)c3nc4ccc(-c5ccccc5)cc4s3)o2)N1 (stereo not given)
< 10 | C[C@@H](NC(=O)OC(C)(C)C)c1nnc(C(=O)c2nc3ccc(-c4ccccc4)cc3s2)o1
